Molecules are shown by their SMILES.

The target of one test is T1, PD-1/PD-L1 (Homo sapiens, UniProt Q9NZQ7).
T1 construct: purchased Cisbio 63ADK000CPDPEB
Kind of test: PD-1/PD-L1 binding assay (HTRF, PPI-HTRF). The settings on record: HTRF PD1/PD-L1 binding assay kit; 10 nM Tag1-PD-L1; 25° C. The method, then:
Assay 1 PD-1/PD-L1 Binding Assay
DMSO is from Sigma, Cat No: D5879; 384-well small volume plate (white) is from Greiner, Cat No: 784075; Anti-PD1 blocking antibody (IC50: 10 nM) is from Cisbio, Cat No: 64CUS000C-1a; Anti-PDL1 blocking antibody (IC50: 0.3 nM) is from Cisbio, Cat No: 64CUS000C-1b; HTRF PD1/PD-L1 binding assay kit is from Cisbio, Cat No: 63ADK000CPDPEB.
1. Prepare the compound to be tested at 2x concentration into 1× reaction buffer containing 4% DMSO;
2. Tag1-PD-L1 protein and Tag2-PD1 protein were prepared in 1× reaction buffer at concentrations of […] and 10 nM, respectively. The final reaction concentration of the experiment was 10 nM Tag1-PD-L1 and 2 nM […];
3. anti-Tag1-Eu3+ antibody is prepared in 1x concentration detection buffer at a ratio of 1:100;
4. anti-Tag2-XL665 antibody is prepared in 1x concentration detection buffer at a ratio of 1:25; Experimental steps
1. 5 μL of compounds to be tested (2×) was added;
2. 2.5 ul Tag1-PD-L1 protein and 2.5 ul Tag2-PD1 protein were added respectively, and the total reaction system is 10 ul, and reacted at 25° C. for 15 minutes;
3. 5 ul anti-Tag1-Eu3+ antibody and 5 ul anti-Tag2-XL665 antibody were added respectively, and reacted at 25° C. for 16 hours;
4. The fluorescence microplate reader HTRF reading program was used to read two readings at 665 nm and 620 nm, the ratio of the two wavelengths was used to judge the activity of the compound, and the IC50 of the compound to be tested is calculated by XLFIT5.0 (IDBS).

Test [1] concerns Jurkat T(PD1 Luc-)/CHOK1(PDL-1). Kind of test: Jurkat T(PD1 Luc-)/CHOK1(PDL-1) cell experiment (luciferase reporter). It is filed as cell-based. The conditions noted are these: CHO/PD-L1-OKT3 cells co-cultured with Jurkat/PD1-NFAT-Luc cells for 6 hours; Bio-Glo luciferase signal. As to the method: Assay 2 Jurkat T(PD1 Luc-)/CHOK1(PDL-1) Cell Experiment
G418, Sangon Biotech #A100859-0001, Cat Number G108BA0003, 5 ml of deionized water being added into each bottle, store at 4° C.
CHO/PD-L1-OKT3 cells (constructed by referring to Promega's PD-1/PD-L1 Blockade Bioassays system) cultured in F-12K medium (containing 10% FBS, 800 ug/ml G418, 400 ug/ml D Hygromycin B) were planted into a 96-well plate at 2×10^4 per well, and incubated for 24 hours at 37° C. and 5% CO2. part of the medium was removed, and the test compound dissolved in DMSO with a final concentration of 1 uM was added, and DMSO at the same concentration was added into the control cells. Jurkat/PD1-NFAT-Luc cells (constructed by referring to Promega's PD-1/PD-L1 Blockade Bioassays system) were added at 5×10^5 per well at the same time, and cultured for 6 hours. The corresponding luciferase signal was detected by Bio-Glo™ (Promega, G7940) reagent. The EC50 of each compound to be tested was calculated through the non-linear regression of XLfit software.

T1 sequence (Q9NZQ7 19-238 limits assumed): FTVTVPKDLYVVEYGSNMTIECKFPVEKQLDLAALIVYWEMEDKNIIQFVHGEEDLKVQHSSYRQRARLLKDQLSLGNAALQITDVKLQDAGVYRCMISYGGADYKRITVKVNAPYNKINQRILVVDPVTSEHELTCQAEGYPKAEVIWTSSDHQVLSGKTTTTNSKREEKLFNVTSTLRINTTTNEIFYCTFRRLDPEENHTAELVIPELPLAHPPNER

`Cc1cc(/C=C/c2nccc(-c3cccc(NC(=O)c4ccc(CNCCO)cn4)c3C)c2C#N)c(Cl)cc1CNCCO` [Z-1, (E)-N-(3-(2-(2-chloro-4-(((2-hydroxyethyl)amino)methyl)-5-methylstyryl)-3-cyanopyridin-4-yl)-2-methylphenyl)-5-(((2-hydroxyethyl)amino)methyl)picolinamide] had an IC50 on PD-1/PD-L1 of 1 nM. The same molecule had an EC50 in test [1] of 162 nM.

Molecule `Cc1cc(/C=C/c2nccc(-c3cccc(NC(=O)c4ccc(CNCCO)cn4)c3C)c2C#N)c(Cl)cc1CN1CCCC[C@H]1C(=O)O` [Z-2, (S, E)-1-(5-chloro-4-(2-(3-cyano-4-(3-(5-(((2-hydroxyethyl)amino)methyl)picolinamido)-2-methylphenyl)pyridin-2-yl)vinyl)-2-methylbenzyl)piperidine-2-carboxylic Acid] returned an IC50 at PD-1/PD-L1 of 1 nM. It took 79 nM to reach a half-maximal effect in test [1] (EC50).

At PD-1/PD-L1, `COc1cc(/C=C/c2cccc(-c3cccc(Nc4nccc5cc(CN6CC[C@@H](O)C6)cnc45)c3C)c2C)c(C(F)(F)F)cc1CN1CC[C@@H](C(=O)O)C1` [Z-8] displayed an IC50 of 2 nM. The EC50 in test [1] was determined as 47 nM.

With `Cc1cc(/C=C/c2cccc(-c3cccc(Nc4nccc5cc(CN6CC[C@@H](O)C6)cnc45)c3C)c2C)c(C(F)(F)F)cc1CN1CC[C@@H](C(=O)O)C1` [Z-9], the IC50 on PD-1/PD-L1 is 1 nM. This molecule registered an EC50 in test [1] of 48 nM.

On PD-1/PD-L1, `COc1cc(/C=C/c2cccc(-c3cccc(Nc4nccc5cc(CN6CC[C@@H](O)C6)cnc45)c3C)c2C)c(C(F)(F)F)cc1CN1CCC[C@H]1C(=O)O` [Z-11] came in with an IC50 of 1 nM. In test [1], this molecule came in with an EC50 of 137 nM.

`COc1cc(/C=C/c2ccnc(-c3cccc(Nc4nccc5cc(CN6CC[C@@H](O)C6)cnc45)c3C)c2Cl)c(C(F)(F)F)cc1CN1CC[C@@H](C(=O)O)C1` [Z-12]: the IC50 at PD-1/PD-L1 was determined as 1 nM. Also, a half-maximal effect in test [1] (EC50) was put at 153 nM.

As to `CCOC(=O)[C@@H]1CCN(Cc2cc(C#N)c3oc(-c4cccc(-c5cccc(/C=C/c6cc(OC)c(CN7CC[C@@H](O)C7)cc6C(F)(F)F)c5C)c4C)nc3c2)C1` [Z-45], in test [1], the EC50 worked out at 70 nM.

With `Cc1cc(/C=C/c2nccc(-c3cccc(-c4nc5cc(CN6CCC(C(=O)O)C6)cc(Cl)c5o4)c3C)c2C#N)c(C(F)(F)F)cc1CN1CC[C@@H](O)C1` (stereo partly shown) [Z-48], the concentration giving a half-maximal response (EC50) in test [1] is 70 nM.

`COc1cc(/C=C/c2cccc(-c3cccc(-c4cnc(CNC[C@@H]5CCC(=O)N5)c(OC)n4)c3Cl)c2C)c(C(F)(F)F)cc1CN1CC[C@@H](C(=O)O)C1` [Z-58] registered an EC50 in test [1] of 78 nM.

Regarding `Cc1c(NC(=O)c2ccc(CN3CC[C@@H](O)C3)cn2)cccc1-c1ccnc(/C=C/c2ccc(CN3CC[C@@H](C(=O)O)C3)cn2)c1C#N` [Z-69], the IC50 on PD-1/PD-L1 was determined as 57 nM.

Consider `Cc1cc(/C=C/c2nccc(-c3cccc(NC(=O)c4ccc(CN5CCOCC5)cn4)c3C)c2C#N)c(Cl)cc1CN1CC[C@@H](C(=O)O)C1` [Z-70, (R,E)-1-(5-chloro-4-(2-(3-cyano-4-(2-methyl-3-(5-(morpholinomethyl)picolinamido)phenyl)pyridin-2-yl)vinyl)-2-methylbenzyl)pyrrolidine-3-carboxylic Acid], for which the concentration for half-maximal inhibition (IC50) at PD-1/PD-L1 worked out at 3 nM.

As for `Cc1cc(/C=C/c2nccc(-c3cccc(NC(=O)c4ccc(CN5CCOCC5)cn4)c3C)c2C#N)c(Cl)cc1CN1CCCC[C@H]1C(=O)O` [Z-71], the IC50 at PD-1/PD-L1 was 5 nM.

`Cc1cc(CN2CCCC[C@H]2C(=O)O)c(C)cc1/C=C/c1nccc(-c2cccc(NC(=O)c3ccc(CN4CC[C@@H](O)C4)cn3)c2C)c1C#N` [Z-72] displayed an IC50 at PD-1/PD-L1 of 2 nM.

For the molecule `Cc1cc(/C=C/c2nccc(-c3cccc(NC(=O)c4nc5c(n4C)CCN(C4CCOCC4)C5)c3C)c2C#N)c(Cl)cc1CN1CCCC[C@H]1C(=O)O` [Z-73, (S, E)-1-(5-chloro-4-(2-(3-cyano-4-(2-methyl-3-(l-methyl-5-(tetrahydro-2H-pyran-4-yl)-4,5,6,7-tetrahydro-1H-imidazo[4,5-c]pyridine-2-carboxamido)phenyl)pyridin-2-yl)vinyl)-2-methylbenzyl) piperidine-2-carboxylic Acid], at PD-1/PD-L1, the IC50 was 2 nM.

For `COc1cc(/C=C/c2nccc(-c3cccc(NC(=O)c4ccc(CN5CC[C@@H](O)C5)cn4)c3C)c2C#N)cc(OC)c1CN1CCCC[C@H]1C(=O)O` [Z-75], the IC50 on PD-1/PD-L1 was 36 nM.

As for `Cc1cc(/C=C/c2nccc(-c3cccc(NC(=O)c4ccc(CN5CC[C@@H](O)C5)cn4)c3C)c2C#N)c(Cl)cc1CN1CC2(CC(C(=O)O)C2)C1` [Z-78, (R,E)-2-(5-chloro-4-(2-(3-cyano-4-(3-(5-((3-hydroxypyrrolidin-1-yl)methyl)picolinamido)-2-methylphenyl)pyridin-2-yl)vinyl)-2-methylbenzyl)-2-azaspiro[3.3]heptane-6-carboxylic Acid], the IC50 on PD-1/PD-L1 turned out to be 13 nM.

In turn, `Cc1cc(/C=C/c2nccc(-c3cccc(NC(=O)c4ccc(CN5CC[C@@H](O)C5)cn4)c3C)c2C#N)c(C2CC2)cc1CN1CC[C@@H](C(=O)O)C1` [Z-79, (R)-1-(4-((E)-2-(3-cyano-4-(3-(5-(((R)-3-hydroxypyrrolidin-1-yl)methyl)picolinamido)-2-methylphenyl)pyridin-2-yl)vinyl)-5-cyclopropyl-2-methylbenzyl)pyrrolidine-3-carboxylic Acid] registered an IC50 on PD-1/PD-L1 of 1 nM.

Take `Cc1cc(/C=C/c2cccc(-c3cccc(NC(=O)c4ccc(CN5CC[C@@H](O)C5)cn4)c3C)c2C(F)(F)F)c(Cl)cc1CN1CC[C@@H](C(=O)O)C1` [Z-88]: the IC50 at PD-1/PD-L1 stood at 3 nM.

`COc1cc(/C=C/c2cccc(-c3cccc(NC(=O)c4ccc(CN5CC[C@@H](O)C5)cn4)c3F)c2F)c(C(F)(F)F)cc1CN1CC[C@@H](C(=O)O)C1` [Z-100] showed an IC50 at PD-1/PD-L1 of 1 nM.

Regarding `COc1cc(/C=C/c2cccc(-c3cccc(NC(=O)c4ccc(CN5CC[C@@H](O)C5)cn4)c3C#N)c2Cl)c(C(F)(F)F)cc1CN1CC[C@@H](C(=O)O)C1` [Z-104], the IC50 on PD-1/PD-L1 was 1 nM.

Regarding `COc1cc(/C=C/c2cccc(-c3cccc(NC(=O)c4ccc(CN5CC[C@@H](O)C5)c(OC)n4)c3C)c2C)c(C(F)(F)F)cc1CN1CCC[C@H]1C(=O)O` [Z-116], on PD-1/PD-L1, the IC50 came to 3 nM.

In turn, `COc1cc(/C=C/c2cccc(-c3cccc(NC(=O)c4ccc(CN5CC[C@@H](O)C5)cc4)c3C)c2C)c(C(F)(F)F)cc1CN1CC[C@@H](C(=O)O)C1` [Z-123] gave an IC50 on PD-1/PD-L1 of 1 nM.

As for `COc1cc(/C=C/c2cccc(-c3cccc(NC(=O)c4nc5c(n4C)CCN(C)C5)c3C)c2C)c(C(F)(F)F)cc1CN1CC[C@@H](C(=O)O)C1` [Z-126, (R,E)-1-(4-(2-(3′-(1,5-dimethyl-4,5,6,7-tetrahydro-1H-imidazo[4,5-c]pyridine-2-carboxamido)-2,2′-dimethyl-[1,1′-biphenyl]-3-yl)vinyl)-2-methoxy-5-(trifluoromethyl)benzyl)pyrrolidine-3-carboxylic Acid], at PD-1/PD-L1, the IC50 was 1 nM.

With `COc1cc(C(=O)Nc2cccc(-c3cccc(/C=C/c4cc(C)c(CN5CC[C@@H](C(=O)O)C5)cc4C(F)(F)F)c3C)c2C)ncc1CN1CC[C@@H](O)C1` [Z-127], the IC50 on PD-1/PD-L1 amounted to 1 nM.

At PD-1/PD-L1, `COc1cc(/C=C/c2cccc(-c3cccc(NC(=O)c4cn5c(n4)CN(C)CC5)c3C)c2C)c(C(F)(F)F)cc1CN1CCC(C(=O)O)C1` (stereo not shown) [Z-129, (E)-1-(4-(2-(2,2′-dimethyl-3′-(7-methyl-5,6,7,8-tetrahydroimidazo[1,2-a]pyrazine-2-carboxamido)-[1,1′-biphenyl]-3-yl)vinyl)-2-methoxy-5-(trifluoromethyl)benzyl)pyrrolidine-3-carboxylic Acid] displayed an IC50 of 1 nM.

At PD-1/PD-L1, `COc1cc(/C=C/c2cccc(-c3cccc(NC(=O)c4cc(OC)c(CN5CC[C@@H](O)C5)cn4)c3C)c2C)c(C(F)(F)F)cc1CN1CC(C(=O)O)C1` [Z-130] gave an IC50 of 1 nM.

Molecule `COc1cc(/C=C/c2cccc(-c3cccc(NC(=O)c4cc(OC)c(CN5CC[C@@H](C(=O)O)C5)cn4)c3C)c2C)c(C(F)(F)F)cc1CN1CC[C@@H](O)C1` [Z-136] displayed an IC50 on PD-1/PD-L1 of 5 nM.

Molecule `COc1cc(/C=C/c2cccc(-c3cccc(NC(=O)c4cc(OC)c(CN5CC[C@@H](O)C5)cn4)c3C)c2C)c(C(F)(F)F)cc1CN1CCC(C(=O)NS(C)(=O)=O)C1` (stereo partly shown) [Z-139] displayed an EC50 in test [1] of 7 nM.
